Assay results: patent EP1714645A1, “Pharmaceutical composition containing bakuchiol for treating breast cancer in women” (Sinphar Pharmaceutical Co., Ltd., priority 2005, dated 2006)
Values after ≈ are worked out from the molar mass of the structure shown.

Experiments:
[1] = test system: T47D; test: Cytotoxicity assay (CCK-8, net growth % vs control); type: cell-based; conditions: Homo sapiens; T47D (estrogen receptor positive), 48 hours incubation; read-out: 50% inhibition of cell growth concentrations of test compounds (IC50)
From the text: (§1) Materials: DMEM (medium), RPMI (medium), L-glutamine, penicillin, streptomycin and FBS (fetal bovine serum) were obtained from Gibco (NY, USA). Culture plasticware was purchased from Coming (MA, USA). […] All other chemicals used were of reagent grade and were purchased from Sigma or E. Merck (Germany).
(§2) Cell lines and cell cultures: The human breast cancer cell lines T47D and MDA-MB231 were obtained from American Type Culture Collection (ATCC). Of both cancer cells, T47D is estrogen receptor positive, and MDA-MB231 is estrogen receptor negative. Cells were cultured at 37°C in RPMI medium containing 10% charcoal-dextran stripped fetal bovine serum for T47D cells and in DMEM medium containing 10% charcoal-dextran stripped fetal bovine serum for MDA-MB231 cells with 5% CO2. The cell proliferation was determined by counting the viable cells with trypan blue exclusion.
(§3) Cytotoxicity assay: Dispense 198 µl of cell suspension (20,000 cells for T47D per well and 10,000 cell for MDA-MB231 per well) in a 96-well plate and pre-incubate the plate for 24 hours in an incubator at 37°C with humidified 5% CO2. […] After plate was incubated for 48 hours in the incubator, media were aspirated of and new media (100 µl) were added and incubated for 1 more hour. […] Measure the absorbance at 450 nm using a ELISA reader. […]

[2] = test system: MDA-MB231; test: as above; type: cell-based; conditions: Homo sapiens, MDA-MB-231; MDA-MB231 (estrogen receptor negative), 48 hours incubation; read-out: 50% inhibition of cell growth concentrations of test compounds (IC50)
From the text: as §1, §2, §3

[3] = test system: five different human cancer cells (lung (A549), ovary (SK-OV-3), skin (SK-MEL-2), central nervous system (XF498), and large intestine (HCT)); conditions: range over A549, SK-OV-3, SK-MEL-2, XF498, HCT; cited from earlier work
[4] = test system: female Wistar rats; test: Ovariectomized rat osteoporosis model, apparent bone density measurement of tibia (Archimedes principle); type: in vivo; conditions: two months, mean value, OVX group 1.549, Sham 1.589, p < 0.05 vs OVX
From the text: (§4) The purpose of this example is to show the potency of bakuchiol in treating osteoporosis, wherein ovary of a female rat is removed to stimulate osteoporosis caused by estrogen deficiency.
(§5) The female Wistar rats of 16 weeks old (unless specified in the other experiment description) were obtained from the stock reared by the Animal breeding center, National Scientific Council in Taipei. These rats were grouped by weights matched in order to distribute the physiological response variation from rats evenly into each group. These rats were grouping as follows: • Baseline group fed with no drug added food (n=8) • Sham operation group fed with no drug added food (Sham) (n=10) • Ovariectomy operation group fed with no drug added food (OVX) (n=8) • Ovariectomy operation group fed with Drug A (5 mg/kg) added food (OVX+A) (n=9) • Ovariectomy operation group fed with Drug B (15 mg/kg) added food (OVX+B) (n=9)
Ovariectomy (removal of ovaries) operation: Ovariectomy was induced using a protocol similar to that described by Wronski et al (Wronski et al, Endocrinology, 123(2), 681-86 (1988)). […]
The whole tibia and femur were stripped off attached muscles and ligaments after sacrifice. […] The weight of bone measured in the air was marked as W-air. […] The apparent bone density was calculated as [W-air/(W-air minus W-water)] […]

[5] = test system: female Wistar rats; test: Ovariectomized rat osteoporosis model, bone histomorphometry of proximal tibia; type: in vivo; conditions: two months, mean value, p < 0.001 vs OVX; for Bone volume % (BV/TV): proximal tibia head trabecular bone, OVX group 12.50%, Sham 29.50%; for Erosion surface (ESBS, %): proximal tibia, OVX group 5.8%, Sham 4.7%
From the text: as §4, §5
Ovariectomy (removal of ovaries) operation: Ovariectomy was induced using a protocol similar to that described by Wronski et al (Wronski et al, Endocrinology, 123(2), 681-86 (1988)).
During the experiments, the rats were housed in hanging grid cages in groups of two at 21°C with a 12 hours dark cycle. Food (Rat-mouse diet III, adequate in 1 % of calcium content and 1.2 % of phosphate content, Purina, USA) was administered by paired feeding between the experimental and control groups. Pair-feeding was carried out by calculating the average amount of food intake in the Sham group. So give the same amount of food to the OVX , OVX+A (5 mg/kg), OVX+B (15 mg/kg) group animals the following day. These animals were fed with a period of two months except for the baseline group which were killed on the very day of doing ovariectomy or sham operation. Rats of OVX+A and OVX+B groups were fed with the usual food chuck but added certain amount of compound A and B in it respectively. Water was given ad libitum to all rats.
The test drug was weighted according to dose of 5 mg/kg and 15 mg/kg, and added into the ususal food chuck powder and mixed with 10% starch paste. After fully mixed, these chuck powder were made into mass manually and dried by air flow oven. The food with added drug to rats was performed by single blind method.
These labeling and bone histomorphometry assessment were done based on standard procedure in bone research (Lin et al, Calcif. Tissue Int., 67, 373-377 (2000)). Specimen were prestained with Villanueva bone stain, then […] and embedded in London resin. Undecalcified sections of 7 µm thick were cut using Jung-K microtome (Leica Ltd, USA) and treated with Villanueva stain for observation under light microscopy. Seven µm thick unstained sections were prepared for fluorescent microscopy and assessed with program Osteomeasure (3.0 version, Atlanta, USA). […]

C=C[C@@](C)(/C=C/c1ccc(O)cc1)CCC=C(C)C [Bakuchiol, bakuchiol]
IC50 [1]: 5 µg/mL (≈ 19.5 µM)
IC50 [2]: 0.62 µg/mL (≈ 2.42 µM)
average inhibitory concentration (IC50) [3]: 10~15 µg/cc
Bone apparent density ([4]; OVX+A group (5 mg/kg) in food): 1.582 gm/cm^3
Bone apparent density ([4]; OVX+B group (15 mg/kg) in food): 1.587 gm/cm^3
Bone volume % (BV/TV) ([5]; OVX+A group (5 mg/kg) in food): 19.80%
Erosion surface (ESBS, %) ([5]; OVX+A group (5 mg/kg) in food): 5.0%
Bone volume % (BV/TV) ([5]; OVX+B group (15 mg/kg) in food): 20.11%
Erosion surface (ESBS, %) ([5]; OVX+B group (15 mg/kg) in food): 4.8%
